{
  "source": "patent US10766873B2",
  "about": "“Zuclopenthixol hydrochloride derivatives and Ebselen derivatives as ErbB2 inhibitors” (Centre National de la Recherche Scientifique (CNRS), priority 2016, dated 2020)",
  "key": {"[1]": {"tested_on": "WT ErbB2-transfected cells", "test": "MTT cell proliferation, WT ErbB2-transfected HBMEC", "assay_type": "cell-based", "details": "day 3", "experimental": "The WT, V777L or V842I ErbB2-transfected cells were treated with 5 or 10 μM of ZU and cell proliferation was determined each day during 3 days using an MTT assay. Non transfected cells were included as a negative control.\nThe WT, V777L or V842I ErbB2-transfected cells were treated with 5 or 10 μM of EB1 and cell proliferation was determined each day during 3 days using an MTT assay. Non transfected cells were included as a negative control."}, "V842I ErbB2": {"biological_target": "T1, V842I ErbB2 (Homo sapiens, UniProt P04626, V842I)", "T1 construct": "expressed in transfected cells; host or cells: HBMEC", "test": "Western blot pY1248, V842I ErbB2 in transfected HBMECs", "assay_type": "cell-based", "details": "0, 5, 10 or 20 μM, 48 h", "experimental": "HBMECs cells were transfected with plasmids encoding WT, V777L or V842I and treated with 0, 5, 10 or 20 μM ZU or EB1 for 48 h. ErbB2 activation was then analyzed by western blot analysis using a phospho-ErbB2-specific antibody (pY1248) and a total ErbB2 antibody. Histograms show optical density quantification."}, "SKBR3": {"tested_on": "SKBR3", "test": "MTT cell proliferation, SKBR3", "assay_type": "cell-based, human", "experimental": "(§1) We then analyzed the ability of ZU and EB1 and their derivatives to decrease the ErbB2-dependent cell proliferation.\n(§2) SKBR3, BT474, MCF-7, MDA-MB-231 and HBMEC cells were treated with the compounds as indicated, and cell proliferation was determined each day during 3 days using an MTT assay. Non treated cells were included as a negative control.\n(§3) A solution of ZU in cis conformation was mixed to a solution of ZU in trans conformation (1:1) to obtain ZU in a 50/50 cis/trans conformation and their respective effects on ErbB2 activation and ErbB2-dependent cell proliferation were analyzed as previously by dot blot analysis using an anti-phosphotyrosine antibody (clone 4G10) and by MTT assays in the ErbB2-overexpressing breast cancer cell line SKBR3, BT474, or HBMEC as a control."}, "[2]": {"biological_target": "peptide encoding the juxtamembrane region of ERBB2 (Homo sapiens, UniProt P04626)", "test": "Surface Plasmon Resonance, Biacore T200", "assay_type": "binding", "from_the_text": "We analyzed the ability of ZU to directly bind to the juxtamembrane domain of ErbB2 using Surface Plasmon Resonance assays on a Biacore T200. For that, we compared the affinity of the compounds for a peptide containing the Ezrin binding motif […] of ErbB2 immobilized on sensorchips, which was reflected by the amplitude of the SPR response.\nCompound ZU and EB1 were validated for their interaction with peptide encoding the juxtamembrane region of ERBB2 using a Biacore T200 (IECB, Bordeaux). Biotinylated peptide encoding the juxtamembrane region of ERBB2 (biotin-[…]) has been immobilized on Streptavidin-coated sensor chips (Series S sensor chip SA, GE Healthcare). Compound ZU in PBS, 0.02% tween20 buffer was used as analyte, and the Ezrin FERM domain has been used as a positive control."}, "ErbB2": {"biological_target": "ErbB2 (Homo sapiens, UniProt P04626)", "test": "ErbB2 phosphorylation in SKBR3 cells, dot blot (4G10)", "assay_type": "cell-based", "design": "endogenous in cells; host or cells: SKBR3", "details": "SKBR3, 24 h", "experimental": "The ability of ZU and EB1 and their derivatives to inhibit ErbB2 activity in cellulo on a commonly used ErbB2-overexpressing breast cancer cell line SKBR3 was analyzed. SKBR3 were treated 24 h with increasing concentrations of the compounds (0.625-80 μM) and ErbB2 phosphorylation was addressed by dot blot analysis using an anti-phosphotyrosine antibody (clone 4G10). Quantifications show the result of two independent experiments."}, "BT474": {"tested_on": "BT474", "test": "MTT cell proliferation, BT474", "assay_type": "cell-based, human", "experimental": "as §1, §2, §3"}, "[3]": {"tested_on": "human breast cancer BT474 cells", "test": "BT474 orthotopic xenograft in mammary fat pad of mice", "assay_type": "in vivo, NOD.Cg-Prkdc scid/J mice", "details": "for tumor growth in vivo (in words): then once per day 3 days", "experimental": "5.10^6 BT474 cells were implanted orthotopically in the mammary fat pad of NOD.Cg-Prkdc scid/J mice, in the presence of estradiol supplement. After 4 weeks, mice were injected with ZU (N=10, 5 mg/kg per day for 5 days a week, followed by 3 mg/kg for 5 days a week during three weeks for N=6) or vehicle (N=10, 10% DMSO in PBS). Mice weight and tumor volume were measured 3 and 2 times a week respectively.\n5.10^6 BT474 cells were implanted orthotopically in the mammary fat pad of NOD.Cg-Prkdc scid/J mice, in the presence of estradiol supplement. Nineteen days after implantation, treatment began and mice were injected i.p. with […] ZU (5 mg/kg per day for 3 days a week, during three weeks for N=9), 4 mg/kg ZU (5 days a week during three weeks, N=8) or vehicle (N=9, 10% DMSO in PBS). Mice weight and tumor volume were measured 3 and 2 times a week respectively.\n5.10^6 BT474 cells were implanted orthotopically in the mammary fat pad of NOD.Cg-Prkdc scid/J mice, in the presence of estradiol supplement. After 4 weeks, mice were injected with EB1 3 mg/kg (N=8), 5 mg/kg (N=6) or vehicle (N=8, 10% DMSO in PBS) twice a day for 5 days a week (2×D), during 2 weeks then once per day (1×D) during 3 days. Mice weight and tumor volume were measured 3 and 2 times a week respectively."}},
  "data": [
    {"molecule": "O=C1c2ccccc2[Se](=O)N1c1ccccc1", "note": "(centres unmarked) [EB1, Ebselen oxide]", "values": [
      {"measurement": "decrease of the proliferation of WT transfected HBMEC", "setting": "[1]; 5 μM", "value": 60, "unit": "%"},
      {"measurement": "decrease of the proliferation of WT transfected HBMEC", "setting": "[1]; 10 μM", "value": 95, "unit": "%"},
      {"measurement": "ErbB2 V842I activation (in words)", "setting": "V842I ErbB2", "value": "potently decrease"},
      {"measurement": "IC50", "setting": "SKBR3; Homo sapiens, SK-BR-3", "value": 7.5, "unit": "µM"},
      {"measurement": "EC50", "setting": "SKBR3; Homo sapiens, SK-BR-3, 72 h, day 3, read-out: Cell proliferation at d 3 SKBR3 EC50", "value": 7.4, "unit": "µM"},
      {"measurement": "Cell proliferation at d 3 SKBR3 Max inhibition, %", "setting": "SKBR3; day 3", "value": 96.7, "unit": "%"},
      {"measurement": "binding to immobilized ErbB2 juxtamembrane peptide (SPR, in words)", "setting": "[2]", "value": "bound to the immobilized peptide"},
      {"measurement": "Emax", "setting": "ErbB2; SK-BR-3, 0.625-80 μM, read-out: ErbB2 activation 24 h Max inhibition, %", "value": 66.9, "unit": "%"},
      {"measurement": "maximum inhibition of ErbB2 phosphorylation", "setting": "ErbB2", "value": 70, "unit": "%"},
      {"measurement": "EC50", "setting": "ErbB2; read-out: ErbB2 activation 24 h EC50", "value": 23.4, "unit": "µM"},
      {"measurement": "IC50", "setting": "ErbB2; read-out: IC50 ErbB2 phosphorylation", "value": 20, "unit": "µM"},
      {"measurement": "IC50", "setting": "BT474; Homo sapiens, BT-474", "value": 5.5, "unit": "µM"},
      {"measurement": "EC50", "setting": "BT474; Homo sapiens, BT-474, 72 h, day 3, read-out: Cell proliferation at d 3 BT474 EC50", "value": 5.5, "unit": "µM"},
      {"measurement": "Cell proliferation at d 3 BT474 Max inhibition, %", "setting": "BT474; day 3", "value": 100, "unit": "%"},
      {"measurement": "tumor growth in vivo (in words)", "setting": "[3]; 3 mg/kg twice a day 5 days a week 2 weeks", "value": "able to decrease the tumor growth"},
      {"measurement": "tumor growth in vivo (in words)", "setting": "[3]; 5 mg/kg twice a day 5 days a week 2 weeks, tumor volume and tumor weight", "value": "more significant"},
      {"measurement": "tolerability in mice, body weight (in words)", "setting": "[3]; 3 or 5 mg/kg", "value": "well tolerated"}
    ]}
  ]
}
